Read-outs that look alike come from different tables or passages of the source.
Key:
[1] = molecular target: T1, serotonin transporter (SERT) (Rattus norvegicus, UniProt P31652); assay: Serotonin reuptake ([^3H]serotonin uptake) inhibition in rat brain synaptosomes; type: biochemical; details: for Emax: read-out: SERT Uptake Emax; for IC50: read-out: SERT Uptake IC50
T1 construct: Freshly removed whole brain minus cerebellum and caudate was homogenized; from tissue; host or cells: rat whole brain minus cerebellum and caudate, synaptosomes
T1 sequence (P31652 whole entry): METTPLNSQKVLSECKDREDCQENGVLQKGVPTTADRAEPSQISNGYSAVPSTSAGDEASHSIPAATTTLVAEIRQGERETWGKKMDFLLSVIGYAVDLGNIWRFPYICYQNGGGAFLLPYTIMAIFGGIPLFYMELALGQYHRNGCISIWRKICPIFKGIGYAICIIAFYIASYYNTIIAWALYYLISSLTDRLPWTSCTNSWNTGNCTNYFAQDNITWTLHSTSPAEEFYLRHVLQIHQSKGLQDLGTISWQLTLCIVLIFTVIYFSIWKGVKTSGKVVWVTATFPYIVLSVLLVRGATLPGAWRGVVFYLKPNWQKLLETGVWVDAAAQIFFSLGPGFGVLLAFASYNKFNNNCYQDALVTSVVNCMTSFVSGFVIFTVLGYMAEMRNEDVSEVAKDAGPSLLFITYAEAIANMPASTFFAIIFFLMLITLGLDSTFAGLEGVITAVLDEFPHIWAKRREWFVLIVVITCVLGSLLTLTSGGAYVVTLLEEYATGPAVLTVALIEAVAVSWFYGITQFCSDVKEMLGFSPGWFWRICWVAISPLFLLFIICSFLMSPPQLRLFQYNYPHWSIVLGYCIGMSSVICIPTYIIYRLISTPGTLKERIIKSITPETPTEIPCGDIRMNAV

[2] = molecular target: T2, DAT (Rattus norvegicus, UniProt P23977); assay: Dopamine transporter binding, inhibition of [^3H]WIN35428 binding in rat caudate membranes; details: for Emax: 2 h, read-out: DAT Binding εmax
T2 construct: from tissue; host or cells: rat caudate membranes
T2 sequence (P23977 whole entry): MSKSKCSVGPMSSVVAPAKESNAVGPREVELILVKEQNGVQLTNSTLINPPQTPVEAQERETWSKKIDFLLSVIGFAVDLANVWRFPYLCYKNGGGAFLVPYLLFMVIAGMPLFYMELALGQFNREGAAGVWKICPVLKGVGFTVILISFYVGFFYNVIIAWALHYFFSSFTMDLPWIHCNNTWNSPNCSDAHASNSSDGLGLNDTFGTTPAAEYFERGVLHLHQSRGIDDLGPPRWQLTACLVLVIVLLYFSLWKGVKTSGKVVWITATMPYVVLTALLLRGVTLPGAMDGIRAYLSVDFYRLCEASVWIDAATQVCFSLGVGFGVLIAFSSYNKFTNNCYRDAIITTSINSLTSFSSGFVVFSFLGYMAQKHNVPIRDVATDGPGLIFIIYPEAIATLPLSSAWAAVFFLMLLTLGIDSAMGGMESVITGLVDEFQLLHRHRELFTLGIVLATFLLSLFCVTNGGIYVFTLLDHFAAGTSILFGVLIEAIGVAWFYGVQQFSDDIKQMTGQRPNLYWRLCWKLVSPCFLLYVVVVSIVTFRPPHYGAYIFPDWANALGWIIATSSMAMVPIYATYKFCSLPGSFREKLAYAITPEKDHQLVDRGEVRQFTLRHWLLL
Procedure: The ability of test drugs to inhibit [^3H]WIN35428 binding to DAT in rat caudate membranes was assessed as follows. For each experiment, caudates from four rat brains were suspended in 15 mL ice cold assay buffer (50 mM sodium phosphate pH 7.4) and homogenized using a polytron (setting 6, 20 sec). The homogenate was centrifuged at 30,000×g for 10 minutes at 4° C. The pellet was resuspended with vigorous vortexing in 15 mL fresh ice cold assay buffer, and the centrifugation was repeated. The pellet was resuspended in 15 mL fresh ice cold assay buffer with vigorous vortexing followed by six strokes with a glass-on-glass hand-held homogenizer and was diluted to a final volume of 235 mL in ice cold assay buffer. [^3H]WIN35428 was diluted to 10 nM in assay buffer that contained 25 μg/mL chymostatin, 25 μg/mL leupeptin, 0.1 mM EDTA, and 0.1 mM EGTA. Each assay tube contained 0.75 mL membrane preparation, 0.15 mL test drug diluted in assay buffer containing 1 mg/mL bovine serum albumin, and 0.1 mL [^3H]WIN35428 preparation (final concentration of 1 nM). Assays were initiated by the addition of membranes and were terminated after 2 hours at 25° C. by rapid vacuum filtration. Retained tritium was measured as described. The data from three experiments were pooled and fit to a dose-response curve equation (using Kaleidagraph), to yield an Emax and EC50 value.

[3] = molecular target: T3, dopamine transporter (DAT) (Rattus norvegicus, UniProt P23977); assay: Dopamine reuptake ([^3H]dopamine uptake) inhibition in rat brain synaptosomes
T3 sequence (P23977 whole entry): as above

[4] = molecular target: norepinephrine transporter (NET) (Rattus norvegicus, UniProt Q9WTR4); assay: Norepinephrine reuptake ([^3H]norepinephrine uptake) inhibition in rat brain synaptosomes; details: for NE Uptake Emax (% I ± SD): maximal inhibition from dose-response fit
Procedure: Freshly removed whole brain minus cerebellum and caudate was homogenized in 10% ice-cold sucrose with 12 strokes of a hand-held Potter-Elvehjem homogenizer followed by centrifugation at 1000×g for 10 minutes. The supernatants were saved on ice and used immediately. Transporter activity at NET was assessed using 10 nM [^3H]norepinephrine. […] Uptake inhibition assays were conducted at 37° C. and were initiated by adding 100 μL of tissue to 900 μL assay buffer containing test drug and [^3H]norepinephrine. Test drugs were diluted in assay buffer containing 1 mg/mL bovine serum albumin. Nonspecific uptake was measured by incubating in the presence of 10 μM indatraline. The reactions were stopped after 10 minutes by rapid vacuum filtration with a cell harvester (BRANDEL) over GF/B filters (Whatman) presoaked in wash buffer maintained at 25° C. (10 mM Tris-HCl, pH 7.4/150 mM NaCl). Filters were rinsed with 6 mL wash buffer and retained tritium was quantified by a MicroBeta liquid scintillation counter (PerkinElmer) after overnight extraction in 0.6 mL of liquid scintillation cocktail (Cytoscint, ICN). The data from three experiments were pooled and fit to a dose-response curve equation (using Kaleidagraph), to yield an Emax and EC50 value.
The data from three experiments were pooled and fit to a dose-response curve equation (using KaleidaGraph; Synergy Software, Reading, Pa.) to yield an Emax and IC50 value.

[5] = molecular target: T3, dopamine transporter (DAT); assay: Dopamine transporter-mediated [^3H]MPP^+ release, shift of D-amphetamine-induced release, rat caudate synaptosomes; type: biochemical; design: Freshly removed caudate was homogenized in 10% ice-cold sucrose; from tissue; host or cells: rat caudate synaptosomes
[6] = DAT Uptake IC50, [3H]DA uptake inhibition, mean ± S.D., n = 3
[7] = IC50 for DAT Uptake Inhibition, rounded value as listed in Table 10
[8] = read-out: Emax for DAT Uptake Inhibition
[9] = rat brain synaptosomes, 10 nM [^3H]norepinephrine
[10] = read-out: NE Uptake EC50 (nM ± SD), rat brain synaptosomes, 10 nM [^3H]norepinephrine, 10 min, 37° C.
[11] = read-out: NET Uptake IC50, mean ± S.D., n = 3
[12] = Emax of D-amphetamine for [^3H]MPP^+ release in presence of 50 nM test compound
[13] = [3H]MPP+ release, Apparent Kc = [Blocker]/((EC50-2/EC50-1) − 1), negative when shifted EC50 is less than control
[14] = Emax of D-amphetamine for [^3H]MPP^+ release in presence of 150 nM test compound
[15] = apparent Ke from shift of D-amphetamine-induced [^3H]MPP^+ release, compound at the concentration of column 1, read-out: Ke App
[16] = inhibition of [3H]WIN35428 binding, mean ± S.D., n = 3

Emax ([1]; mean ± S.D., n = 3) | IC50 ([1]; mean ± S.D., n = 3) | Emax [2] | IC50 [3, 6] | IC50 [3, 7] | Emax ([3]; read-out: DAT Uptake Emax) | Emax [3, 8] | NET Uptake Emax ([4]; mean ± S.D., n = 3) | NE Uptake Emax (% I ± SD) [4, 9] | IC50 [4, 10] | IC50 [4, 11] | D-Amphetamine Emax (% ± SD) [5, 12] | Apparent Kc [5, 13] | D-Amphetamine Emax (% ± SD) [5, 14] | Kb [5, 15] | Structure (SMILES) | other results
51 ± 1% | 0.0047 ± 0.0006 µM | 18 ± 4% | 0.0021 ± 0.0003 µM | 0.002 µM | 68 ± 1% | 68% | 69 ± 2% | 69 ± 2 % I | 63 ± 9 nM | 63 ± 9 nM | 102 ± 2% | -1070 nM | – | – | c1ccc(C(CNc2nc(-c3cnc4nccn4c3)nc3ccccc23)c2ccccc2)cc1 [compound 89, N-(2,2-Diphenylethyl)-2-(Imidazo[1,2-A]Pyrimidin-6-yl)Quinazolin-4-Amine] | –
54 ± 1% | 0.023 ± 0.003 µM | 43 ± 4% | 0.006 ± 0.0007 µM | 0.006 µM | 70 ± 1% | 70% | 70 ± 2% | 70 ± 2 % I | 95 ± 12 nM | 95 ± 12 nM | – | 1600 nM | 104 ± 4% | 1.6 µM | c1ccc(C(CNc2nc(-c3cnc4nccn4c3)nc3ccccc23)C2CCCCC2)cc1 (stereo not drawn) [compound 102, N-(2-Cyclohexyl-2-Phenylethyl)-2-(Imidazo[1,2-A]Pyrimidin-6-yl)Quinazolin-4-Amine] | –
35 ± 3% | 0.013 ± 0.006 µM | – | 0.0088 ± 0.0011 µM | 0.009 µM | 63 ± 1% | 63% | 40 ± 5% | 40 ± 5 % I | 86 ± 55 nM | 86 ± 55 nM | – | – | – | – | c1ccc(C(CNc2nc(-c3ccc4ncnn4c3)nc3ccccc23)c2ccccc2)cc1 [compound 105, 2-([1,2,4]Triazolo[1,5-A]Pyridin-6-yl)-N-(2,2-Diphenylethyl)Quinazolin-4-Amine] | DAT Binding εmax [2, 16]: Inactive; D-Amphetamine Emax (% ± SD) ([5]; Emax of D-amphetamine for [^3H]MPP^+ release in presence of 250 nM test compound): 105 ± 4%
51 ± 2% | 0.011 ± 0.003 µM | 25 ± 2% | 0.0056 ± 0.0008 µM | 0.006 µM | 64 ± 1% | 64% | 69 ± 2% | 69 ± 2 % I | 60 ± 10 nM | 60 ± 10 nM | – | 1200 nM | 104 ± 5% | 1.2 µM | c1ccc(C(CNc2nc(-c3cnc4nccn4c3)nc3ccccc23)c2ccncc2)cc1 (stereo not drawn) [compound 110, 2-(Imidazo[1,2-A]Pyrimidin-6-yl)-N-(2-Phenyl-2-(Pyridin-4-yl)Ethyl)Quinazolin-4-Amine] | –
56 ± 2% | 0.018 ± 0.004 µM | 42 ± 3% | 0.0061 ± 0.001 µM | 0.006 µM | 64 ± 2% | 64% | 81 ± 2% | 81 ± 2 % I | 88 ± 15 nM | 88 ± 15 nM | – | 1600 nM | 105 ± 4% | 1.6 µM | c1ccc(C(CNc2nc(-c3ccc4nccn4c3)nc3ccccc23)c2ccc[nH]2)cc1 (stereo not drawn) [compound 117, 2-(Imidazo[1,2-A]Pyridin-6-yl)-N-(2-Phenyl-2-(1H-Pyrrol-2-yl)Ethyl)Quinazolin-4-Amine] | –
58 ± 3% | 0.0032 ± 0.0009 µM | 79 ± 3% | 0.0005 ± 0.0001 µM | 0.0005 µM | 63 ± 2% | 63% | 67 ± 3% | 67 ± 3 % I | 21 ± 7 nM | 21 ± 7 nM | – | 267 nM | – | 0.267 µM | Cc1cc2nccn2cc1-c1nc(NCC(c2ccccc2)c2ccccc2)c2ccccc2n1 [compound 118, N-(2,2-Diphenylethyl)-2-(7-Methylimidazo[1,2-A]Pyridin-6-yl)Quinazolin-4-Amine] | D-Amphetamine Emax (% ± SD) ([5]; Emax of D-amphetamine for [^3H]MPP^+ release in presence of 12.5 nM test compound): 104 ± 3%
54 ± 2% | 0.0031 ± 0.0007 µM | 91 ± 7% | 0.0012 ± 0.0001 µM | 0.001 µM | 69 ± 1% | 69% | 70 ± 4% | 70 ± 4 % I | 11 ± 4 nM | 11 ± 4 nM | – | 55 nM | – | – | Cc1cc2nccn2cc1-c1nc(NCC(c2ccccc2)c2ccc[nH]2)c2ccccc2n1 (stereo not drawn) [compound 140, 2-(7-Methylimidazo[1,2-A]Pyridin-6-yl)-N-(2-Phenyl-2-(1H-Pyrrol-2-yl)Ethyl)Quinazolin-4-Amine] | D-Amphetamine Emax (% ± SD) ([5]; Emax of D-amphetamine for [^3H]MPP^+ release in presence of 25 nM test compound): 105 ± 3%
– | 0.0024 ± 0.0004 µM | 92 ± 4% | 0.0019 ± 0.0003 µM | 0.002 µM | 72 ± 2% | 72% | 61 ± 2% | – | – | 17 ± 4 nM | 103 ± 3% | 400 nM | – | 0.4 µM | Cc1cc2nccn2cc1-c1nc(NCC(c2ccccc2)c2ccncc2)c2ccccc2n1 (stereo not drawn) [compound 151, 2-(7-Methylimidazo[1,2-A]Pyridin-6-yl)-N-(2-Phenyl-2-(Pyridin-4-yl)Ethyl)Quinazolin-4-Amine] | –
– | 0.003 ± 0.0006 µM | 52 ± 8% | 0.0017 ± 0.0001 µM | 0.002 µM | 69 ± 1% | – | 69 ± 4% | – | – | 16 ± 5 nM | 104 ± 4% | 46 nM | – | – | Cc1cc2nccn2cc1-c1nc(NCC(O)(c2ccccc2)c2ccccc2)c2ccccc2n1 [compound 152, 2-((2-(7-Methylimidazo[1,2-A]Pyridin-6-yl)Quinazolin-4-yl)Amino)-1,1-Diphenylethanol] | –

Structure (SMILES) | Emax ([1]; mean ± S.D., n = 3) | IC50 ([1]; mean ± S.D., n = 3) | Emax [2] | IC50 [3, 6] | IC50 [3, 7] | Emax ([3]; read-out: DAT Uptake Emax) | Emax [3, 8] | NET Uptake Emax ([4]; mean ± S.D., n = 3) | NE Uptake Emax (% I ± SD) [4, 9] | IC50 [4, 10] | IC50 [4, 11] | D-Amphetamine Emax (% ± SD) [5, 12] | Apparent Kc [5, 13] | D-Amphetamine Emax (% ± SD) [5, 14] | Kb [5, 15] | other results
Cl.Fc1ccc2c(NCC(c3ccccc3)c3ccccc3)nc(-c3ccc4nccn4c3)nc2c1 [compound 124, N-(2,2-Diphenylethyl)-7-Fluoro-2-(Imidazo[1,2-A]Pyridin-6-yl)Quinazolin-4-Amine Hydrochloride] | – | 0.025 ± 0.007 µM | – | 0.0074 ± 0.0011 µM | 0.007 µM | 69 ± 1% | 69% | 63 ± 3% | 63 ± 3 % I | 94 ± 22 nM | 94 ± 22 nM | – | – | – | – | Emax [1]: 49 ± 2%; DAT Binding IC50 [2, 16]: Inactive; DAT Binding εmax [2, 16]: Inactive; Apparent Kc [5]: 3200 nM; Kb [5]: 3.2 µM; D-Amphetamine Emax (% ± SD) ([5]; Emax of D-amphetamine for [^3H]MPP^+ release in presence of 200 nM test compound): 104 ± 5%
